The conditions of data set [1]: cited from earlier work.
Data set [2] deals with hBLECs. Briefly: Toxicity on hBLECs / monolayer integrity by LY permeability in combination with test substance. In kind it is cell-based, human. As for the experimental part: (§1) Prior to the experiments, in order to verify the hBLECs’ monolayer integrity and stability, the permeability parameters were verified as previously reported. Briefly, 1.5 mL Ringer–Hepes solution (RH) (150 mM NaCl, 5.2 mM KCl, 2.2 mM CaCl2, 0.2 mM MgCl26H2O, 6 mM NaHCO3, 5 mM HEPES, pH: 7.4) was added to empty wells of a 12-well plate. Filter insert containing confluent monolayers of hBLECs or not (control) were subsequently placed in the 12-well plate, filled with 0.5 mL RH buffer containing the fluorescent integrity marker LY (50 μM), and then placed on an orbital shaker (150 rpm, Heidolph Titramax 100) at 37 °C in a humidify atmosphere of 95% air/5% CO2. Every 20 min for 1 h, filter inserts were withdrawn from the receiver compartment and placed in the next one. To verify the quantity of LY, at the end of the experiments, aliquots from the donor solution were taken at the end of the experiments and the fluorescence was quantified using a quantification curve of LY as referee. At least three inserts with cells and three without cells were tested in each permeability measurement. The fluorescence was measured using a luminescence spectrometer (LS 50B, Perkin Elmer), using the following excitation/emission wavelength (nm) settings: 432/538. Pe parameters were calculated according to the formulas shown in the Supplementary Information (Equations (7)–(10)). In parallel, as positive control for breakdown of hBLECs, D-mannitol, was used at a concentration of 1.4 M. At this concentration, mannitol induces an osmotic shock, and thus an increase in paracellular permeability.
To evaluate the toxicity of GM1 and OligoGM1, the LY endothelial permeability (Pe) and apparent permeability (Papp) were considered for evaluation of hBLEC monolayer integrity after administration of compounds.
To examine the LY permeability, 1.5 mL of RH buffer was added to empty wells of a 12-well plate, then hBLEC filters were placed in the 12-well plate and filled with 0.5 mL RH buffer containing 50 μΜ LY plus OligoGM1 or GM1 at an appropriate test concentration (from 5 to 300 μΜ). The hBLEC inserts were moved every 20 min to a new RH-filled well up to 60 min. At the end of the incubation period, solutions were collected from apical and basolateral compartments, LY was quantified, and Papp was calculated as reported in the Supplementary Information (Equation (1)) and previously mentioned.

The test system of data set [3] is human brain-like endothelial cells (hBLECs). In words: Direct transport (apical to basolateral, A → B) across the hBLEC monolayer: Pe and Papp. In kind it is in vitro ADME. The settings on record: for endothelial permeability Pe (A → B): after 60 min, hBLEC monolayer. As for the experimental part: as §1
Transport experiments were carried out by adding tritium-labeled GM1 or OligoGM1 (1 × 10^6 dpm) to cold GM1 or OligoGM1, respectively, at different concentrations, as specified below.
To identify and quantify the GM1 or OligoGM1 molecules in every transport experiment, aliquots from apical A (5 μL) and basolateral B (200 μL) compartments were collected at indicated time points and combined with 5 mL of ULTIMA GOLD liquid (PerkinElmer), shaken, and counted for 20 min by liquid scintillation analyzer (TRI-CARB 2100TR, Packard). Resulting radioactivity measures were used to estimate the quantity of the molecules. Experiments were performed on an agitation plate at 37 °C (150 rpm, Heidolph Titramax 100) in a humidify atmosphere of 95% air/5% CO2. At least three inserts with cells were tested in each transport experiment for each condition.
To examine flux from apical to basolateral compartments (A → B), 1.5 mL RH buffer was added to empty wells of a 12-well plate. Following this, the hBLEC filter was placed in the same 12-well plate and filled with 0.5 mL RH buffer containing 1 × 10^6 dpm of tritiated [^3H]GM1 or [^3H]OligoGM1 plus 50 μM of cold GM1 or OligoGM1 (Figure S3b).
To establish the time dependence of the transport experiments, hBLEC inserts filled with OligoGM1 were transferred into a new receiver well plate filled with fresh RH buffer every 20 min up to 240 min. The hBLECs’ properties, integrity, and stability were maintained up to 240 min in the transport experiments with RH buffer in the upper and basolateral side (see [28] and Figure S4).
To establish the dose dependence in the transport experiments, 1 × 10^6 dpm of tritiated [^3H]OligoGM1 plus 5, 10, 50, 100, and 300 μM OligoGM1 solutions were prepared and employed as described above. The hBLECs inserts were transferred into a new RH-filled receiver well plate every 20 min up to 60 min. […]
To evaluate the possible active transport involvement, the transport of OligoGM1 from apical to basolateral (A → B) compartments was performed at 4 °C, with the aim of inhibiting the active transport mechanism at low temperature. […]

Another data set concerns MRPs. In words: ABC transporter competition assay (Caco-2 pump out), CMFDA efflux. The settings on record: Caco-2 cells, positive control.
In data set [4] the test system is human brain-like endothelial cells (hBLECs). Briefly: Inverse transport (basolateral to apical, B → A) across hBLECs and efflux ratio. In kind it is in vitro ADME. As for the experimental part:
For the inverse transport study (related to basolateral → apical flux, B → A), 1.5 mL of 1 × 10^6 dpm of tritiated [^3H]OligoGM1 plus 50 μM OligoGM1 in RH buffer were added to an empty well of a 12-well plate (Figure S3c). Every 20 min up to 60 min, the hBLEC filter filled with 0.5 mL RH buffer was removed and replaced with a new filter with fresh RH buffer.
The apparent permeability, efflux ratio, and endothelial permeability were calculated to estimate the absorption processes of drugs, to predict implication of active transport in the process of drugs absorption, and to more accurately appreciate the transport of a drug across an endothelial barrier, respectively. Detailed information on the equations used to calculate the permeability parameters are reported in the Supplementary Information. […]
where (∆Q/∆t) (μmol/sec) is the rate of permeation (quantity per second) of a molecule across the cell layer, C0 (μmol/cm3) is the donor compartment concentration at time zero and S (cm2) is the area of […]
In the transwell insert system there are two compartments and, analyzing the absorption of a substance, the apparent permeability index can be obtained for the apical to basolateral transport, Papp A → B, and for the inverse, basolateral to apical transport Papp B → A.
To define Papp (1), the Fick's law could be used, which describes the transport of substances through a semipermeable membrane. Given that the initial concentration of the solute in the donor compartment is much higher than the one in the receiver compartment (equal to 0 at t0), and assuming that the solute equally partitions in the two compartments, for small variation of C0, it is possible to integrate and simplify the Fick’s equation to obtain as follows: […]
where ∆Q/∆t corresponds to the amount of solute that crosses the membrane over time, D is the diffusion coefficient of the substance in water, S is the membrane surface, h its thickness and C0 is the concentration of the solute which approximates the initial concentration C0.
The equation (2) can be rewritten as: […]

Data set [5] has as its system hBLECs. In words: Metabolic integrity of OligoGM1 after hBLEC transport (HPTLC autoradiography). In kind it is in vitro ADME, human. The settings on record: basolateral compartment, detection limit 15 dpm. An excerpt: Since OligoGM1 is tritium labeled at position 6 of the external galactose, any possible galactosidase activity present on the plasma membrane of hBLECs can result in external galactose removal, leading to loss of radioactivity from the penta-saccharide. Radiolabeled galactose may pass the BBB or may enter into the cells and be recycled for the biosynthesis of new glycans, so that the radioactivity found may correspond to the galactose or to any possible new glycan rather than to the original oligosaccharide.
Thus, to test the integrity of the OligoGM1 molecule after hBLEC crossing, OligoGM1 solution was prepared in RH buffer at a final concentration of 100 μM plus 1 × 10^6 dpm of tritium-labeled OligoGM1. For the apical–basolateral transport experiment, the hBLEC insert’s apical side was filled with 0.5 mL of the drug solution and placed on 1.5 mL RH buffer-filled well of a 12-well plate. After 60 min, the solution of the receiving compartment (about 1.5 mL) was collected and 200 μL were combined with 5 mL of ULTIMA GOLD liquid (PerkinElmer), shaken, and counted for 20 min by a liquid scintillation analyzer (TRI-CARB 2100TR, Packard).
To verify that the counted radioactivity indeed corresponded to [^3H]OligoGM1, 0.5 mL of receiving compartment solution was lyophilized and suspended in 0.5 mL of methanol. […]

Data set [6] relates to hBLECs. In words: Fate of OligoGM1 in hBLECs (cell-associated radioactivity). In kind it is in vitro ADME, human. As for the experimental part: The possible internalization of OligoGM1 in hBLECs was determined by measuring the radioactivity associated to the cells. Briefly, at the end of direct transport, apical and basolateral solutions were collected, hBLEC filters were washed with RH buffer, and cells were detached by trypsin and lysed with 1mM Na3VO4, 1 mM PMSF, 2% (v/v) aprotinin, and 1% (v/v) IP in cold PBS. At this point, the lysed cell solution was counted to measure the radioactivity. All the cell lysates were combined with 5 mL of ULTIMA GOLD liquid (PerkinElmer), shaken, and counted for 20 min by liquid scintillation analyzer (TRI-CARB 2100TR, Packard). The resulting dpm radioactivity measures were used to estimate the molecule quantity.

Where [7] appears, read: 1.4 M, osmotic shock, positive control for leakage.

Consider seven compounds from article PMC7215935, “GM1 Oligosaccharide Crosses the Human Blood–Brain Barrier In Vitro by a Paracellular Route” (International Journal of Molecular Sciences, 2020).

Experimental for MRPs: Briefly, Caco-2 cells in 96-well plates were washed once with RH buffer and incubated for 120 min with 10 µM R123 or for 15 min with 0.5 µM CMFDA. R123 and CMFD are substrates for the major efflux pumps expressed by BBB and intestine cells, i.e., P-gp/BCRP and MRPs, respectively. After the incubation period, Caco-2 cells were washed twice with RH buffer with or without test compounds (OligoGM1 at 10, 50, and 100 µM). The rate out (Kout) of Caco-2 cells for fluorescent dyes was monitored by fluorescence measurement (λex = 501 nm and λem = 538 nm for R123; λex = 485 nm and λem = 538 nm for CMFDA) using a microplate fluorescent reader (BioTek, H1, Vermont, Winooski). The amount of dye expelled from the cells was measured at 37 °C and every 5 min for one hour for R123 and every 2 min for 30 min for CMFDA. The rate out of the dye from cells was calculated as the slope of the curve of the cumulative amount of dye against the time (Kout = ∆pmol⁄∆t) and compared with the value in the presence of test compounds.

For the compound 6′-R-maltosyl-maltotrioside, in data set [1], the “hydrodynamic radius (r)” value was 8.7 Å.
For `OC[C@@H](O)[C@@H](O)[C@H](O)[C@H](O)CO` [D-mannitol], in the data set on hBLECs [2] (setting [7]), the “rise of LY Papp on co-incubation” value was found to be 4 fold and the “rise of LY Pe on co-incubation” value turned out to be 20 fold.
Take `CCCCCCCCCCCCCC=CC(O)C(COC1OC(CO)C(OC2OC(CO)C(OC3OC(CO)C(O)C(OC4OC(CO)C(O)C(O)C4O)C3NC(C)=O)C(OC3(C(=O)O)CC(O)C(NC(C)=O)C(C(O)C(O)CO)O3)C2O)C(O)C1O)NC(=O)CCCCCCCCCCCCCCCCC` (stereo not drawn) [GM1, β-Gal-(1-3)-β-GalNAc-(1-4)-[α-Neu5Ac-(2-3)]-β-Gal-(1-4)-β-Glc-(1-1)-Cer, reference compound]: the “effect on LY Pe and Papp (toxicity to hBLECs)” value with hBLECs [2] (10, 50, 100 and 300 μM with 50 μM LY, 60 min and over time (20, 40, 60 min)) was “no variations of LY Pe and Papp were observed”. Besides, the “endothelial permeability Pe (A → B)” value in data set [3] (50 μM) is on record as 0.028 ± 0.007 ×10^−3 cm/min.
For the compound `CN(C)C(=O)CCSC(SCCC(=O)O)c1cccc(/C=C/c2ccc3ccc(Cl)cc3n2)c1` (centres unmarked) [MK571, reference compound], the “decrease of outgoing rate (Kout) of CMFDA” value with MRPs is listed as “more than 30%”.
On to `OC[C@H]1O[C@H](OC[C@H]2O[C@H](OC[C@H]3O[C@H](O[C@]4(CO)O[C@H](CO)[C@@H](O)[C@@H]4O)[C@H](O)[C@@H](O)[C@@H]3O)[C@H](O)[C@@H](O)[C@H]2O)[C@H](O)[C@@H](O)[C@H]1O` [stachyose], for which, in data set [1], the “hydrodynamic radius (r)” value was 6.5 Å.
Turning to Lucifer yellow [LY, reference compound], the “Papp B>A” value in data set [4] (50 μM in basolateral compartment, 60 min (Figure 7)) is reported as 1.59 ± 0.27 x 10^-5 cm/sec. The “Efflux Ratio (E) = Papp B>A / Papp A>B” value in data set [4] (50 μM, 60 min, hBLECs) was found to be 1.25. Also, the “hydrodynamic radius (r)” value in data set [1] is 4.9 Å. Further, in data set [3] (50 μM LY, hBLEC integrity check (Figure 2)), the “apparent permeability Papp (A → B) of LY alone” value is 1.25 ± 0.123 ×10^−5 cm/s. Further, the “Papp A>B at 4 °C” value in data set [3] (50 μM, 60 min, 4 °C (Figure 6d)) is 1.04 ± 0.068 x 10^-5 cm/sec. Further, the “Papp A>B at 37 °C” value in data set [3] (50 μM, 60 min, 37 °C, temperature experiment (Figure 6d)) is 1.27 ± 0.072 x 10^-5 cm/sec. In data set [3] (50 μM), the “endothelial permeability Pe (A → B)” value was 0.65 ± 0.041 ×10^−3 cm/min.
As for “[6-^3H]β-Gal-(1-3)-β-GalNAc-(1-4)-[α-Neu5Ac-(2-3)]-β-Gal-(1-4)-β-Glc-Cer [[^3H]OligoGM1]”, in the data set with hBLECs [5], the “metabolic stability after hBLEC crossing” value was “metabolically stable”. Moreover, the “amount found within the cells (internalization)” value in the data set on hBLECs [6] (50 μM apical, 20, 40, 60, 240 min, cell lysate) is recorded as “no detectable amount”. In addition, in the data set on hBLECs [6] (50 μM apical, each time point 20, 40, 60, 240 min), the “radioactivity associated with apical and basolateral solutions” value is “about 99%”.
